Data on one molecule can be found in patent US12350277B2, “Compositions and methods of use for treating aberrant inflammation in peri-ocular secretory glands or at the ocular surface” (CS Pharmaceuticals Limited, priority 2017, dated 2025).

Like-named read-outs stand apart in the source and are kept apart here.

Data set [1] has as its system rabbits, atropine sulfate model of dry eye disease. The data set can be described thus: tear formation (Schirmer test) in atropine sulfate model of dry eye disease. Type of data set: in vivo. To be noted: 30 μL eye drops four times per day after atropine sulfate 1%, seven days. On the procedure: Next, the effect on tear formation of treatment with the compound of Formula I was examined. Rabbits were placed in a restraining device, and atropine sulfate 1% ophthalmic solution (30 μL) was instilled into the lower conjunctival sac of each eye four times per day. Fifteen minutes after the administration of each dose of atropine sulfate, each eye received 30 μL of eye drops containing the active ingredient, vehicle, or saline. Tear volume was then evaluated by the Schirmer test (FIG. 2). Schirmer strips were carefully placed in the posterior (i.e., temporal) lower fornix for 60 seconds, and the wetted area was read in millimeters as an index of tear volume.

Data set [2] is described as follows: solubility limit in receptor fluid. The note with it: not told, aqueous with cosolvent or surfactant or cyclodextrin; phosphate-buffered saline pH 7.4 with 0.01 wt % Na azide and 1 wt % Brij 020. It is filed as physicochemical.
A short description of data set [3]: ocular exposure and pharmacokinetics after BID eyelid cream administration in minipigs. Type of data set: in vivo, Hanford minipigs. To be noted: for concentration at 8 h: 8 hours post final dose. As for the experimental part:
(§1) To determine the ocular exposure and pharmacokinetics following topical cream administration to the eyelids, the cream containing 2% of compound of Formula I was applied BID to eyelids of 8 Hanford minipigs for 7 days and one additional application on day 8 for a total of 15 topical doses. After the last dose on day 8, two animals each were euthanized at 2, 4, 8, and 24 hours after the final dose, and eyes were collected for dissection into the following tissues and fluids: eyelids (including palpebral conjunctiva), bulbar conjunctiva, cornea, iris/ciliary body (ICB), and aqueous humor (AQH). Plasma was also collected (prior to dose application on Days 1 and 8, and prior to euthanasia). […] Meibum was believed to be only one lipid compartment in the eyelids that could act as a depot for lipophilic compounds. […] and other fatty tissues were others. Attempts to express meibum from the ducts, thereby rendering the eyelid itself unusable for further analysis, would have not permitted assessment of drug content in other potential lipid structures in the eyelids. Thus, the decision was made to assess drug exposure in the eyelid as an intact tissue to capture all potential drug depots.
Three different extraction and analytical methods were developed for the determination of the compound of Formula I in i) plasma and aqueous humor; ii) bulbar conjunctiva, cornea, ICB; iii) eyelids. Assay ranges were 0.1-100 ng/mL, 1-1000 ng/g, and 1-1000 ng/g, respectively. Briefly, analytical methods were as follows: i) plasma and aqueous humor standards were from minipig and rabbit, respectively; ii) bulbar conjunctiva, cornea, ICB standard was rabbit cornea; iii) eyelid standard was pig skin. The internal standard working solution for analytical purposes was comprised of 20.0 ng/mL ^13C2, ^15N-labeled compound of Formula I in acetonitrile with 1% formic acid (v/v) which was being added to each sample. The tissue/fluid sample extraction procedure involved i) plasma/aqueous humor sample; ii) bulbar conjunctiva, cornea, ICB homogenization in acetonitrile; iii) eyelid digestion in 1:1 acetonitrile:ammonium hydroxide solution for 1.5 hours at 37° C. followed by acetonitrile addition, homogenization, and neutralization with formic acid; in all cases followed by addition of internal standard working solution, vortexing and centrifugation. Analysis of the samples was then carried out with LC-MS/MS, employing mobile phases A (Water with 0.1% formic acid) and B (acetonitrile with 0.1% formic acid).

A short description of data set [4]: plasma exposure after BID eyelid cream administration in minipigs. It is filed as in vivo, Hanford minipigs. As for the experimental part: as §1
Three different extraction and analytical methods were developed for the determination of the compound of Formula I in i) plasma and aqueous humor; ii) bulbar conjunctiva, cornea, ICB; iii) eyelids. Assay ranges were 0.1-100 ng/mL, 1-1000 ng/g, and 1-1000 ng/g, respectively. Briefly, analytical methods were as follows: i) plasma and aqueous humor standards were from minipig and rabbit, respectively; ii) bulbar conjunctiva, cornea, ICB standard was rabbit cornea; iii) eyelid standard was pig skin. The internal standard working solution for analytical purposes was comprised of 20.0 ng/mL ^13C2, ^15N-labeled compound of Formula I in acetonitrile with 1% formic acid (v/v) which was being added to each sample. […]

A short description of a further data set: protein binding. Type of data set: in vitro ADME.
The target of data set [5] is T1, glucocorticoid receptor (Homo sapiens, UniProt P04150).
T1 sequence (P04150 1-777): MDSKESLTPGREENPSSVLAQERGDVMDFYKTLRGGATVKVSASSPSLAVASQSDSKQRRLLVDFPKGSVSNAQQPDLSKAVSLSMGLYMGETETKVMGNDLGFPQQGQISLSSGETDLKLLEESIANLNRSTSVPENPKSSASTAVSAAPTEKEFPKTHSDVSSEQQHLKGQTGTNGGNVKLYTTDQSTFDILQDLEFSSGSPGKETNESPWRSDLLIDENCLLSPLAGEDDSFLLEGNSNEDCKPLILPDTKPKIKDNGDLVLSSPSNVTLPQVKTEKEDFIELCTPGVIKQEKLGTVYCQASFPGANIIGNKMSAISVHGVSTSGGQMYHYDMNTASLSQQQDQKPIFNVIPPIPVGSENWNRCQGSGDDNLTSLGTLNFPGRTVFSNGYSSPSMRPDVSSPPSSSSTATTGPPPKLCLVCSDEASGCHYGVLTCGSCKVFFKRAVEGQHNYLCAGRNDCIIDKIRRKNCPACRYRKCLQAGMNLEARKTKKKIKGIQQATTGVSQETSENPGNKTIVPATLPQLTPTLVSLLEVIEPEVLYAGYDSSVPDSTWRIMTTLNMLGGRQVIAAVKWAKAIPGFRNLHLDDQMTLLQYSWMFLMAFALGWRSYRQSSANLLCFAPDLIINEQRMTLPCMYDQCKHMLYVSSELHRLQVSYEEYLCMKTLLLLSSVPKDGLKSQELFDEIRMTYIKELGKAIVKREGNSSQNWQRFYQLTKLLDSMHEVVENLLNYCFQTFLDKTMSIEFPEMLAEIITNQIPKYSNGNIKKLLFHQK
To be noted: variety of human in vitro assays; cited from earlier work.

The target in data set [6] is T1, glucocorticoid receptor. The note with it: number of assays; cited from earlier work.
Data set [7] concerns models of lung inflammation. The note with it: mouse, intratracheal dosing; cited from earlier work.
The subject of data set [8] is models of lung inflammation. To be noted: rat, intratracheal dosing; cited from earlier work.
Another data set concerns NFκB pathway. To be noted: A549, HeLa, MG63, 16HBE, and H9 cell lines; IL-1β / TNFα stimulation; cited from earlier work.

Usually solubility stands for the dissolved amount per volume that the medium holds. Broadly, the fraction unbound is the share of the substance not bound to proteins or other matrix. The low end stands for little free substance, the high end for much free substance. On to `C[C@@H]1C[C@H]2[C@@H]3C[C@H](F)C4=CC(=O)C=C[C@]4(C)[C@@]3(F)[C@@H](O)C[C@]2(C)[C@@]1(OC(=O)C1C(C)(C)C1(C)C)C(=O)OCC#N` [compound of Formula I, 6α,9α-difluoro-11 β-hydroxy-16α-methyl-3-oxo-17α-(2,2,3,3-tetramethycyclopropylcarbonyl)oxy-androsta-1,4-diene-17β-carboxylic acid cyanomethyl ester], for which the “tear formation (Schirmer test)” value in data set [1] is “prevented a decrease in tear formation similar to topical dexamethasone”. The same molecule registered a solubility in data set [2] of approximately 0.0358 mg/mL. Moreover, in data set [3] (4 hours post final dose, 2% cream, 15 applications over 7.5 days), the “highest mean concentration in eyelid tissue” value stood at 30613 ng/g. In addition, the concentration at 8 h in data set [3] (Hanford, minipig, aqueous humor, topical, BID, 2% cream, 15 applications over 7.5 days, read-out: mean concentration in aqueous humor) worked out at 5.81 ng/g; in data set [3] (Hanford, minipig, cornea, topical, BID, 2% cream, 15 applications over 7.5 days, read-out: mean concentration in cornea), 452 ng/g. For the same molecule, in data set [3] (Hanford, minipig, bulbar conjunctiva, topical, BID, 4 hours post final dose, 2% cream, 15 applications over 7.5 days), the concentration at 4 h was 1930 ng/g. The molecule also gave a concentration at 24 h in [3] (Hanford, minipig, iris/ciliary body (ICB), topical, BID, 24 hours post final dose, 2% cream, 15 applications over 7.5 days) of 20.5 ng/g. Moreover, in [3] (eyelids, conjunctiva, cornea, ICB, aqueous humor, post final peri-ocular dose), the “exposure levels in each compartment over time” value was “remained almost constant for up to 24 hours”. Besides, the highest plasma concentration in [4] (24 hours following the final Day 8 dose) stood at 2.22 ng/mL. In addition, the systemic accumulation result in [4] (after 7.5 days of multiple topical eyelid application) is “no or very low systemic accumulation”. In data set [4] (up to 24 hours after last application, LLOQ 0.1 ng/mL), the plasma exposure entry is “generally low or below the lower limit of quantification”. Besides, in “protein binding”, the fraction unbound was approximately 0.01. Besides, the “glucocorticoid receptor-mediated transrepression activity” value on glucocorticoid receptor [5] was “close to full agonism”. Further, the glucocorticoid receptor-mediated transactivation entry on glucocorticoid receptor [6] is given as “partial response”. In addition, the “anti-inflammatory activity in models of lung inflammation” value in data set [7] and in data set [8] was “potent anti-inflammatory activity” in each case. Also, the “transrepression of NFκB pathway activation (IL-6, IL-8 release)” value in the data set on NFκB pathway is “potently and efficiently transrepress”.
